From patent US20240238274A1, “INHIBITORS OF UBIQUITIN SPECIFIC PEPTIDASE 22 (USP22) AND USES THEREOF FOR TREATING DISEASE AND DISORDERS” (Northwestern University, priority 2021, published 2024)

What was measured:
LLC1 lung carcinoma = assay: LLC1 tumor model in WT mice; format: in vivo
Procedure: FIG. 6: Usp22 inhibitor administration enhances antitumor immunity. A, Structure of compound CS30 (Usp22i-S02). B, FOXP3 MFI in WT and 22KO of Treg cells after treatment with 20 mg/kg of Usp22i-S02 in vivo (n=3). C, Representative flow cytometry plot of FOXP3+CD25+ MFI of CD4+ peripheral cells of mice treated with 20 mg/kg of Usp22i-S02 relative to control (n=5). D, Graphical representation of Foxp3 MFI upon Usp22i-S02 administration (n=5). E, Tumor growth curve of LLC1 cells subcutaneously injected in the flank of WT mice with or without the addition of 20 mg/kg/time of the Usp22 inhibitor starting at day 15, in 100 μL of oil (n=4). F-G, Representative flow cytometry plot and graphical representation of % infiltration of CD4+ and CD8+ T cells within the tumor (n=4). H, Representative histogram plot and graphical representation of itTreg Foxp3 MFI (n=4). I, MFI of itTreg suppressive markers (n=3-4). J, Percent Foxp3+IFNg+ itTreg cells in control and Usp22-S02 treated mice (n=3-4). B, D-E, G, H-I Two-way ANOVA with multiple comparisons between rows was performed to determine statistical significance. J, Unpaired two tailed T test was performed to determine significance. All data are presented as mean±stdev. NS, not significant. *P<0.05, **P<0.01, ***P<0.001, ****P<0.0001.
FIG. 16: Usp22i-S02 has little effect on naïve mice, yet enhances anti-tumor immunity in LLC1-challenged mice. A, Body weight of Usp22i-S02 treated mice verses DMSO treated controls over the course of treatment (n=4). A-F. Injections were twice a day for 3 consecutive days at 10 mg/kg (n=4). B, Percent of cell populations in naïve mice treated with Usp22i-S02 relative to DMSO control (n=3-4). C, Percent of KI-67+ cells in various compartments in naïve mice treated with Usp22i-S02 relative to DMSO control (n=3-4). D, Percent CD44^hiCD62L^10 in T cell populations gated on CD45+ cells in naïve mice treated with Usp22i-S02 relative to DMSO control (n=3). E, Percent Annexin+PI+ T cells gates on CD45+ cells in naïve mice treated with Usp22i-S02 relative to DMSO control (n=4). […]

LLC1 tumors = assay: Established LLC1 tumors in Rag−/− mice; format: in vivo; conditions: Rag−/− mice with established LLC1 tumors, treated 3 days
Procedure: FIG. 17: Usp22i-S02 inhibits tumor growth in vitro and in vivo. A, In vitro counts of LLC1 after treatment with Usp22i-S02 under various concentrations for 24 hours (n=2). B, In vitro viability of LLC1 after treatment with Usp22i-S02 under various concentrations for 24 hours (n=2). C, In vitro relative growth of LLC1 cells treated with 10 ug/ml of Usp22i-S02 relative to DMSO treated control for 7 days via OD600 (n=4). D, Growth curve of 1 million subcutaneously injected LLC1 cells into RAG−/− mice treated for 3 days Usp22i-S02 relative to DMSO control injections at day 15 of tumor growth (n=4). C-D, Two-way ANOVA with Sidaks's multiple comparisons between rows relative to control was performed to determine statistical significance. All data are presented as mean±stdev. NS, not significant. *P<0.05, **P<0.01, ***P<0.001, ****P<0.0001.
As Usp22 is also an important oncogene (43, 44), we were interested in the potential dual-therapeutic function of Usp22i-S02.

N#Cc1c2c(c(Nc3ccccc3)n3c1nc1ccccc13)CCCC2 [Chemical S02, 11-anilino-7,8,9,10-tetrahydro-benzimidazo [1,2-b] isoquinoline-6-carbonitrile] was tested, and the “intratumoral Foxp3+ Treg percentage” value (LLC1 lung carcinoma; LLC1 tumors, not splenic) was “significantly decreased”, the “Teff cell tumor infiltration” value (LLC1 lung carcinoma; established LLC1 tumors) was “significant increase in Teff cell tumor infiltration” and the tumor rejection (LLC1 lung carcinoma; established LLC1 tumors, 20 mg/kg/time vs untreated) was “striking tumor rejection”. For the same compound, the tumor growth (LLC1 tumors) was “small but statistically significant decrease in tumor growth”.
